Experimental data as given in patent publication US10251867B2, “Dosing regimen for a selective S1P1 receptor agonist” (ACTELION PHARMACEUTICALS LTD, priority 2008, dated 2019).
Like-named read-outs stand apart in the source and are kept apart here.

Tests used:
[1] = test system: healthy male subjects; test: Single-ascending dose (SAD) study AC-058-101, heart rate; assay type: in vivo, human; details: without up-titration; 50 mg SAD, Day 1
Procedure: In the single-ascending dose (SAD) study (AC-058-101), Compound 1 was administered orally to 6 groups of […] (aged 21-47 years). Doses of 1, 3, 8, 20, 50 and 75 mg were given to sequential groups of 8 subjects (6 on active drug and 2 on placebo) in a randomized, double-blind, placebo-controlled design. The dose of 20 mg was given once in the fasted and once in the fed condition, to assess any food effects on the pharmacokinetics of Compound 1. ECGs were recorded, clinical laboratory parameters, vital signs, pulmonary function, neurological assessments (in the 75-mg dose group), plasma levels of Compound 1, and peripheral lymphocyte counts (total and subsets) were determined. All 48 randomized subjects were evaluable and no subjects withdrew or discontinued from the study. All subjects treated with Compound 1 (n=36) were included in the pharmacokinetic (PK) and pharmacodynamic (PD) analysis.

[2] = test system: healthy male and female subjects; test: Multiple-ascending dose (MAD) study AC-058-102 Part A, heart rate without up-titration; assay type: in vivo, human; details: Day 1, Part A
Procedure: In Part A of the multiple-ascending dose (MAD) study (AC-058-102), Compound 1 was administered orally with doses of 5, 10, and 20 mg once-daily for 7 days to healthy male and female subjects (aged 22-58 years, 1:1 sex ratio) in a randomized, double-blind, placebo-controlled design. At each dose level, a group of 10 subjects were randomized to Compound 1 (8), or placebo (2). In Part A, all 30 randomized subjects completed the study and the 24 subjects who were treated with Compound 1 were included in the PK analysis.

[3] = test system: subjects; test: MAD study AC-058-102 Part B, up-titration scheme (10/20/40 mg), heart rate and ECG; assay type: in vivo, human; details: for Mean HR reduction (2.5 h post-dose vs pre-dose): with up-titration, Part B 40-mg dose group
Procedure: In Part B of the MAD study, an up-titration scheme was implemented in order to reduce first-dose effects of Compound 1 on sinus node automaticity and atrioventricular- (AV-) conduction. Treatment with Compound 1 started for 4 days with 10 mg once daily, followed by 4 days with 20 mg once daily, and 7 days with 40 mg once daily. Seventeen subjects (nine females and eight males, aged 18-43 years) were randomized. Thirteen subjects received active treatment and four subjects received matching placebo. A total of 15 out of the 17 subjects completed the study as scheduled. […] The 11 subjects treated with 40-mg Compound 1 who completed the study were included in the PK analysis of Compound 1.

[4] = test system: humans; assay type: in vivo, human
Source text: All of these effects wane with repeated dosing. […] The acute effects on heart rate, atrioventricular conduction, or fatigue and dizziness, although not seriously adverse, are undesirable, and methods to minimize these effects would be valuable for maximizing the tolerability and safety of Compound 1, and other selective S1P1 receptor agonists, and minimizing associated monitoring requirements, in the early phase of dosing initiation, or, after a drug interruption, at re-initiation of drug therapy.
Desensitization has been sustained over this 24-hour dosing interval. […] Desensitization has not been sustained over this 7-day dosing interval of the 20-mg dose. […]

[5] = test system: multiple sclerosis patients; details: cited from earlier work
[6] = test system: humans; details: cited from earlier work

Question: With `CCC/N=C1\S/C(=C\c2ccc(OC[C@H](O)CO)c(Cl)c2)C(=O)N1c1ccccc1C` [Compound 1, (R)-5-[3-chloro-4-(2,3-dihydroxy-propoxy)-benz[Z]ylidene]-2-([Z]-propylimino)-3-o-tolyl-thiazolidin-4-one] as the compound, how does the “Mean HR reduction (2.5 h post-dose vs baseline)” value [1] read?
Answer: Its value is 18 bpm.

Question: And the “Mean HR reduction (2.5 h post-dose vs baseline)” value ([2]; 10 mg)?
Answer: The value was 14 bpm.

Question: What about the “Mean HR reduction (2.5 h post-dose vs baseline)” value ([2]; 20 mg) of the same compound?
Answer: The value was 22 bpm.

Question: And the “Second or third degree AV-blocks” value ([3]; Part B)?
Answer: The value was “No second or third degree AV-blocks were observed”.

Question: And the “Effects on other ECG variables” value ([3]; Part B, multiple dosing)?
Answer: The value was “No relevant effects on other ECG variables were recorded”.

Question: What about the “Discontinuation of dosing due to adverse events” value ([3]; Part B, 13 subjects on active treatment) of the same compound?
Answer: The value was “Dosing was discontinued in two subjects on active treatment due to adverse events”.

Question: What about the AV-block first degree ([3]; Part B, after first 10 mg dose on Day 1) of the same compound?
Answer: The AV-block first degree was “only one subject reported a transient AV-block first degree”.

Question: What about the “Mean HR reduction at 2.5 h post-dose vs pre-dose” value ([3]; Part B, day 2 (10 mg)) of the same compound?
Answer: The value was 2 bpm.

Question: What about the “Mean HR reduction at 2.5 h post-dose vs pre-dose” value ([3]; Part B, day 3 (10 mg)) of the same compound?
Answer: The value was 1 bpm.

Question: What about the “Mean HR reduction at 2.5 h post-dose vs pre-dose” value ([3]; Part B, day 4 (10 mg)) of the same compound?
Answer: Its value is 1 bpm.

Question: What about the “Mean HR reduction at 2.5 h post-dose vs pre-dose” value ([3]; Part B, day 6 (20 mg)) of the same compound?
Answer: The value was 4 bpm.

Question: What about the “Mean HR reduction at 2.5 h post-dose vs pre-dose” value ([3]; Part B, day 7 (20 mg)) of the same compound?
Answer: The value was 3 bpm.

Question: And the “Mean HR reduction at 2.5 h post-dose vs pre-dose” value ([3]; Part B, day 8 (20 mg))?
Answer: The value was 3 bpm.

Question: And the “Mean HR reduction (2.5 h post-dose vs pre-dose)” value ([3]; 10 mg, Day 1)?
Answer: The value was 14 bpm.

Question: And the “Mean HR reduction (2.5 h post-dose vs pre-dose)” value ([3]; 20 mg, Day 5)?
Answer: The value was 9 bpm.

Question: And the “Mean HR reduction (2.5 h post-dose vs pre-dose)” value ([3]; 40 mg, Day 9)?
Answer: Its value is 4 bpm.

Question: And the “Acute effects on heart rate and rhythm and fatigue/dizziness, dose comparison” value ([4]; in vivo)?
Answer: The value was “milder at 10 mg than at 20 mg”.

Question: What about the “Effect on heart rate” value ([4]; in vivo) of the same compound?
Answer: Its value is “transiently reduces heart rate”.

Question: And the Fatigue or dizziness ([4]; in vivo)?
Answer: The Fatigue or dizziness was “Occasional fatigue or dizziness”.

Question: And the Heart rhythm ([4]; in vivo)?
Answer: Its Heart rhythm is “irregular heart rhythm (so-called Wenckebach rhythm)”.

Question: And the “PR interval in the electrocardiogram (ECG)” value ([4]; in vivo)?
Answer: The value was “transient increases in the PR interval”.

Question: What about the “Time of maximal heart rate effect after administration” value ([4]; in vivo) of the same compound?
Answer: The value was 1 to 3 h.

Question: What about the “Acute heart rate reduction” value ([4]; in vivo, po) of the same compound?
Answer: Its value is “results in an acute heart rate reduction on Day 1”.

Question: What about the “Acute heart rate reduction compared to the pre-dose value” ([4]; in vivo, po) of the same compound?
Answer: Its value is “no longer observed”.

Question: What about the “Number of peripheral blood lymphocytes” value ([4]; repeated daily oral dosing of 5 mg or more) of the same compound?
Answer: The value was “consistent, sustained, and dose-dependent reduction in the number of peripheral blood lymphocytes”.

Question: With `CCCCCCCCc1ccc(CCC(N)(CO)CO)cc1` [FTY720] as the compound, how does the “Rate of clinical relapses” value [5] read?
Answer: The value was “reduce the rate of clinical relapses”.

Question: What about the “Effect on heart rate” value [6] of the same compound?
Answer: Its value is “reduces heart rate in humans”.
